Laboratory results from EP4562003B1, “NOVEL 7-SUBSTITUTED INDOLE SULFONAMIDE DERIVATIVES” (F. Hoffmann-La Roche AG, priority 2022, dated 2024).

The compounds below were run against human GPR17 short isoform (Homo sapiens, UniProt Q13304) (assay: GPR17 cAMP assay (TR-FRET cAMP quantification, antagonist mode)). Details: CHO-K1 cells stably expressing human GPR17 short isoform; EC80 of agonist MDL29,951; forskolin 15µM; IBMX 0.5mM; 30 minutes at room temperature; read-out: hGPR17 cAMP IC50.
Assay type: cell-based
Method: GPR17 cAMP Assay Protocol:
CHO-K1 cells stably expressing vector containing untagged human GPR17 short isoform (Roche) were cultured at 37°C / 5% CO2 in DMEM (Dulbecco's Modified Eagle Medium):F-12 (1:1) supplemented with 10% foetal bovine serum and 400 µg/ml Geneticin.
Changes in intracellular cyclic adenosine monophosphate (cAMP) levels were quantified using the Nano-TRF Detection Assay kit (Roche Diagnostics, Cat. No. 05214386001). This assay allows for direct cAMP quantification in a homogeneous solution. cAMP is detected based on time-resolved fluorescence energy transfer (TR-FRET) and competitive binding of ruthenylated cAMP and endogenous cAMP to an anti-cAMP monoclonal antibody labeled with AlexaFluor-700. The Ruthenium complex serves as the FRET donor and transfers energy to AlexaFluor-700. The FRET signal is inversely proportional to the cAMP concentration.
CHO-GPR17S cells were detached with Accutase and resuspended in assay buffer consisting of Hank's Balanced Salt Solution (HBSS), 10mM HEPES (4-(2-hydroxyethyl) piperazine-1-ethanesulfonic acid solution) and 0.1% bovine serum albumin (pH 7.4). The cells were seeded in black 384-well plates (Corning) at a density of 10'000 cells / 20µl assay buffer until the addition of compounds.
Test antagonist compounds were serially diluted in dimethyl sulfoxide (DMSO) and spotted in 384-well plates. The compounds were then diluted in HBSS buffer supplemented with an EC80 concentration of MDL29,951 (3-(2-Carboxy-4,6-dichloroindol-3-yl)propionic acid) (GPR17 agonist) plus 3-Isobutyl-1-methylxanthine (IBMX) (0.5mM final concentration) and added to the cells at room temperature. Forskolin (15µM final concentration) was added 5 minutes after the test compounds and the cells were incubated at room temperature for 30 minutes. The assay was stopped by adding cAMP detection mix (containing detergents for cell lysis) for 90 minutes at room temperature.
Cellular cAMP was measured using a Paradigm reader (Molecular Devices). The raw data was used to calculate the FRET signal based on the assay's P-factor as per cAMP kit instructions. The data was normalized to the maximal activity of a reference antagonist and dose response curves were fitted to the percent activity of the test compounds using a sigmoidal dose response model (Genedata Screener).
Results in the hGPR17 cAMP assay are provided for compounds of formula I in Table 1 Table 1: […]

Chain of human GPR17 short isoform (Q13304 29-367): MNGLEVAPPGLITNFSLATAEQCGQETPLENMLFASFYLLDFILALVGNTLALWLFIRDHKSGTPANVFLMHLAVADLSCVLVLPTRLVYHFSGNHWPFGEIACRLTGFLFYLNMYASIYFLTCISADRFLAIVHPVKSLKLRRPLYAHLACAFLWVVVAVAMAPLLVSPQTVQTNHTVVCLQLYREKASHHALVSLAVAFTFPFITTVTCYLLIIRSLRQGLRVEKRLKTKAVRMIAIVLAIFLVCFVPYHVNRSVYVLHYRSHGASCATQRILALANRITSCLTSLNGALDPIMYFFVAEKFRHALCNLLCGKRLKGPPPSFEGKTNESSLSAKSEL

| IC50 [nM] | Structure (SMILES) |
| --- | --- |
| 130 | COc1nc(NS(=O)(=O)c2c[nH]c3c(-c4cnccn4)cccc23)nc(OC)c1OCC(F)F [Example 30, N-[5-(2,2-difluoroethoxy)-4,6-dimethoxy-pyrimidin-2-yl]-7-pyrazin-2-yl-1H-indole-3-sulfonamide] |
| 84 | COc1nc(NS(=O)(=O)c2c[nH]c3c(-c4cnccn4)c(F)ccc23)nc(OC)c1CC(F)F [Example 31, N-[5-(2,2-difluoroethyl)-4,6-dimethoxy-pyrimidin-2-yl]-6-fluoro-7-pyrazin-2-yl-1H-indole-3-sulfonamide] |
| 129 | COc1nc(NS(=O)(=O)c2c[nH]c3c(-c4cnccn4)c(F)ccc23)nc(OC)c1OCCF [Example 32, 6-fluoro-N-[5-(2-fluoroethoxy)-4,6-dimethoxy-pyrimidin-2-yl]-7-pyrazin-2-yl-1H-indole-3-sulfonamide] |
| 132 | COc1nc(NS(=O)(=O)c2c[nH]c3c(-c4cnccn4)c(F)ccc23)nc(OC)c1OCC(F)F [Example 33, N-[5-(2,2-difluoroethoxy)-4,6-dimethoxy-pyrimidin-2-yl]-6-fluoro-7-pyrazin-2-yl-1H-indole-3-sulfonamide] |
| 407 | COc1nc(NS(=O)(=O)c2c[nH]c3c(-c4cnccn4)c(F)ccc23)nc(OC)c1OC(F)F [Example 34, N-[5-(difluoromethoxy)-4,6-dimethoxy-pyrimidin-2-yl]-6-fluoro-7-pyrazin-2-yl-1H-indole-3-sulfonamide] |
| 34 | COc1nc(NS(=O)(=O)c2c[nH]c3c(-c4ncccn4)c(Br)ccc23)nc(OC)c1CC(F)F [Example 35, 6-bromo-N-[5-(2,2-difluoroethyl)-4,6-dimethoxy-pyrimidin-2-yl]-7-(2-pyrimidyl)-1H-indole-3-sulfonamide] |
| 42 | COc1nc(NS(=O)(=O)c2c[nH]c3c(-c4ncccn4)c(Br)ccc23)nc(OC)c1OC(F)F [Example 36, 6-bromo-N-[5-(difluoromethoxy)-4,6-dimethoxy-pyrimidin-2-yl]-7-(2-pyrimidyl)-1H-indole-3-sulfonamide] |
| 67 | COc1nc(NS(=O)(=O)c2c[nH]c3c(-c4ncccn4)c(Br)ccc23)nc(OC)c1OCCF [Example 37, 6-bromo-N-[5-(2-fluoroethoxy)-4,6-dimethoxy-pyrimidin-2-yl]-7-(2-pyrimidyl)-1H-indole-3-sulfonamide] |
| 54 | COc1nc(NS(=O)(=O)c2c[nH]c3c(-c4ncccn4)c(Br)ccc23)nc(OC)c1OCC(F)F [Example 38, 6-bromo-N-[5-(2,2-difluoroethoxy)-4,6-dimethoxy-pyrimidin-2-yl]-7-(2-pyrimidyl)-1H-indole-3-sulfonamide] |
| 17 | COc1nc(NS(=O)(=O)c2c[nH]c3c(-c4cnccn4)c(Br)ccc23)nc(OC)c1CC(F)F [Example 39, 6-bromo-N-[5-(2,2-difluoroethyl)-4,6-dimethoxy-pyrimidin-2-yl]-7-pyrazin-2-yl-1H-indole-3-sulfonamide] |
| 9 | COc1nc(NS(=O)(=O)c2c[nH]c3c(-c4cnccn4)c(Br)ccc23)nc(OC)c1OC(F)F [Example 40, 6-bromo-N-[5-(difluoromethoxy)-4,6-dimethoxy-pyrimidin-2-yl]-7-pyrazin-2-yl-1H-indole-3-sulfonamide] |
| 15 | COc1nc(NS(=O)(=O)c2c[nH]c3c(-c4cnccn4)c(Br)ccc23)nc(OC)c1OCC(F)F [Example 41, 6-bromo-N-[5-(2,2-difluoroethoxy)-4,6-dimethoxy-pyrimidin-2-yl]-7-pyrazin-2-yl-1H-indole-3-sulfonamide] |
| 38 | COc1nc(NS(=O)(=O)c2c[nH]c3c(-c4cnc(F)cn4)c(Cl)ccc23)nc(OC)c1OCC(F)F [Example 42, 6-chloro-N-[5-(2,2-difluoroethoxy)-4,6-dimethoxy-pyrimidin-2-yl]-7-(5-fluoropyrazin-2-yl)-1H-indole-3-sulfonamide] |
| 32 | COc1nc(NS(=O)(=O)c2c[nH]c3c(-c4cccnn4)c(Br)ccc23)nc(OC)c1CC(F)F [Example 43, 6-bromo-N-[5-(2,2-difluoroethyl)-4,6-dimethoxy-pyrimidin-2-yl]-7-pyridazin-3-yl-1H-indole-3-sulfonamide] |
| 182 | COc1nc(NS(=O)(=O)c2c[nH]c3c(-c4ncccn4)c(C(F)F)ccc23)nc(OC)c1OCCF [Example 44, 6-(difluoromethyl)-N-[5-(2-fluoroethoxy)-4,6-dimethoxy-pyrimidin-2-yl]-7-(2-pyrimidyl)-1H-indole-3-sulfonamide] |
| 50 | COc1nc(NS(=O)(=O)c2c[nH]c3c(-c4ncc[nH]4)c(F)ccc23)nc(OC)c1OCC(F)F [Example 45, N-[5-(2,2-difluoroethoxy)-4,6-dimethoxy-pyrimidin-2-yl]-6-fluoro-7-(1H-imidazol-2-yl)-1H-indole-3-sulfonamide] |
| 34 | COc1nc(NS(=O)(=O)c2c[nH]c3c(-c4ncn(C)c4C)c(Cl)ccc23)nc(OC)c1OCC(F)F [Example 46, 6-chloro-N-[5-(2,2-difluoroethoxy)-4,6-dimethoxy-pyrimidin-2-yl]-7-(1,5-dimethylimidazol-4-yl)-1H-indole-3-sulfonamide] |
| 17 | COc1nc(NS(=O)(=O)c2c[nH]c3c(-c4cn(C)cn4)c(Cl)ccc23)nc(OC)c1OCC(F)F [Example 47, 6-chloro-N-[5-(2,2-difluoroethoxy)-4,6-dimethoxy-pyrimidin-2-yl]-7-(1-methylimidazol-4-yl)-1H-indole-3-sulfonamide] |
| 86 | COc1nc(NS(=O)(=O)c2c[nH]c3c(-c4ncccn4)c(C)ccc23)nc(OC)c1OCC(F)F [Example 48, N-[5-(2,2-difluoroethoxy)-4,6-dimethoxy-pyrimidin-2-yl]-6-methyl-7-(2-pyrimidyl)-1H-indole-3-sulfonamide] |
| 301 | COc1nc(NS(=O)(=O)c2c[nH]c3c(-c4ncccn4)c(C(F)F)ccc23)nc(OC)c1OCC(F)F [Example 49, N-[5-(2,2-difluoroethoxy)-4,6-dimethoxy-pyrimidin-2-yl]-6-(difluoromethyl)-7-(2-pyrimidyl)-1H-indole-3-sulfonamide] |
| 288 | COc1nc(NS(=O)(=O)c2c[nH]c3c(-c4ncccn4)c(C(F)F)ccc23)nc(OC)c1OC(F)F [Example 50, N-[5-(difluoromethoxy)-4,6-dimethoxy-pyrimidin-2-yl]-6-(difluoromethyl)-7-(2-pyrimidyl)-1H-indole-3-sulfonamide] |
| 74 | COc1nc(NS(=O)(=O)c2c[nH]c3c(-c4ncccn4)c(C(F)F)ccc23)nc(OC)c1CC(F)F [Example 51, N-[5-(2,2-difluoroethyl)-4,6-dimethoxy-pyrimidin-2-yl]-6-(difluoromethyl)-7-(2-pyrimidyl)-1H-indole-3-sulfonamide] |
| 22 | COc1nc(NS(=O)(=O)c2c[nH]c3c(-c4ncccn4)c(C)ccc23)nc(OC)c1CC(F)F [Example 52, N-[5-(2,2-difluoroethyl)-4,6-dimethoxy-pyrimidin-2-yl]-6-methyl-7-(2-pyrimidyl)-1H-indole-3-sulfonamide] |
| 43 | COc1nc(NS(=O)(=O)c2c[nH]c3c(-c4nccnc4C)cccc23)nc(OC)c1CC(F)F [Example 53, N-[5-(2,2-difluoroethyl)-4,6-dimethoxy-pyrimidin-2-yl]-7-(3-methylpyrazin-2-yl)-1H-indole-3-sulfonamide] |
| 64 | COc1nc(NS(=O)(=O)c2c[nH]c3c(-c4nccnc4C)cccc23)nc(OC)c1OCC(F)F [Example 54, N-[5-(2,2-difluoroethoxy)-4,6-dimethoxy-pyrimidin-2-yl]-7-(3-methylpyrazin-2-yl)-1H-indole-3-sulfonamide] |
| 157 | COc1nc(NS(=O)(=O)c2c[nH]c3c(-c4ncccn4)c(C)ccc23)nc(OC)c1OC(F)F [Example 55, N-[5-(difluoromethoxy)-4,6-dimethoxy-pyrimidin-2-yl]-6-methyl-7-(2-pyrimidyl)-1H-indole-3-sulfonamide] |
| 129 | COc1nc(NS(=O)(=O)c2c[nH]c3c(-c4ncccn4)c(C)ccc23)nc(OC)c1OCCF [Example 56, N-[5-(2-fluoroethoxy)-4,6-dimethoxy-pyrimidin-2-yl]-6-methyl-7-(2-pyrimidyl)-1H-indole-3-sulfonamide] |
| 109 | COc1nc(NS(=O)(=O)c2c[nH]c3c(-c4cccnn4)c(C)ccc23)nc(OC)c1OCC(F)F [Example 57, N-[5-(2,2-difluoroethoxy)-4,6-dimethoxy-pyrimidin-2-yl]-6-methyl-7-pyridazin-3-yl-1H-indole-3-sulfonamide] |
